These results are taken from US20220378809A1, “SYNTHETIC COMPOSITION FOR BALANCING THE BILE ACID PROFILE IN THE INTESTINE” (GLYCOM A/S, priority 2019, published 2022).

For one assay, the system named is colonic microbiota. The assay is described as follows: In vitro intestinal system simulating the colon of a human infected with C. difficile, after Vancomycin treatment. Conditions: end of washout period. The text has this:
An in vitro intestinal system is used to simulate the colon region in a human infected with C. difficile. The system is inoculated with fresh faecal samples from a healthy individual aged >65 years. The system is run for two weeks as a set up period to stabilise the system. The system is fed daily with a feed solution and with bile acids (primarily taurocholic acid and glycocholic acid). Afterwards, two different interventions are run in parallel for 4 weeks. • Intervention: daily addition of 2′-FL and LNnT (ratio 4:1 by weight) plus an antibiotic (Vancomycin) for seven days, followed by 2′-FL and LNnT (ratio 4:1 by weight) without antibiotic for the next 3 weeks (wash out period), • Control: an antibiotic (Vancomycin) for seven days, followed by no intervention for the next 3 weeks (wash out period). During the antibiotic treatment and washout periods, both the intervention and the control receive the same daily feed including bile acids. At three time points (end of set up period, end of antibiotic treatment, and end of wash out period), the microbiota community and bile acids are measured using 16S sequencing and HPLC-UV method, respectively. The in vitro intestinal system is run as in example 1 except that the intervention is a daily addition of 2′-FL plus an antibiotic (Vancomycin) for seven days, followed by 2′-FL alone for the next 3 weeks (wash out period). The control is as in example b 1. • Control: an antibiotic (Vancomycin) for seven days, followed by no intervention for the next 3 weeks (wash out period).

The test system of another assay is intestinal cells. To be noted: cited from earlier work.
In assay [1] the test system is dextran sodium sulphate-induced colitis. Conditions: mice; daily oral administration; cited from earlier work.

For the compound 2′-fucosyllactose [2′-FL], in the assay with colonic microbiota, the “colonic bile acid metabolism” value is “re-established”. Besides, in the assay on colonic microbiota (16S sequencing), the “restoration of the microbiota” value is on record as “restored”. The secondary bile acids result with colonic microbiota (HPLC-UV) is “presence of the secondary bile acid deoxycholic acid (DCA)”. In addition, the “primary bile acids (cholic acid (CA) and glyco-chenodeoxycholic acid (GCDCA))” value in the assay on colonic microbiota (HPLC-UV, versus Vancomycin-only control) is on record as “decrease in primary bile acids”.
On to `C[C@H](CCC(=O)O)[C@H]1CC[C@H]2[C@@H]3[C@H](O)C[C@@H]4C[C@H](O)CC[C@]4(C)[C@H]3CC[C@]12C` [CDCA, chenodeoxycholic acid], for which, in the assay on intestinal cells, the “permeability of intestinal cells” value is recorded as “increased the permeability” and the “release of proinflammatory cytokines” value was “increased”.
Regarding `C[C@H](CCC(=O)NCC(=O)O)[C@H]1CC[C@H]2[C@@H]3[C@@H](O)C[C@@H]4C[C@H](O)CC[C@]4(C)[C@H]3CC[C@]12C` [GUDCA, glycoursodeoxycholic acid], the “severity of dextran sodium sulphate-induced colitis” value in assay [1] was “equally lowered the severity”.
Consider `C[C@H](CCC(=O)NCCS(=O)(=O)O)[C@H]1CC[C@H]2[C@@H]3[C@@H](O)C[C@@H]4C[C@H](O)CC[C@]4(C)[C@H]3CC[C@]12C` [TUDCA, tauroursodeoxycholic acid], for which the “severity of dextran sodium sulphate-induced colitis” value in assay [1] was “equally lowered the severity”.
